Data taken from publication PMC11054638, “Transport of Non-Steroidal Anti-Inflammatory Drugs across an Oral Mucosa Epithelium In Vitro Model” (Pharmaceutics, 2024).

Assays:
PC3 cells = details: 1500 µM for 24 h ref 60; cited from earlier work
[1] = Transport study across blank inserts without cells; details: Ibuprofen study, mean ± SD
Description: (§1) First, TEER was measured in cultivation media on the day of experiment. Afterwards, cells and blanks were washed twice with DMEM on the apical (300 µL) and basolateral (900 µL) compartments and selected cells and blanks were treated with DMEM with or without 100 µM probenecid or verapamil on the apical and basolateral side at 37 °C for 30 min. […] To cells which were pre-incubated with probenecid or verapamil, 100 µM probenecid or verapamil was applied apically as well. DMSO content was adapted for cells with no inhibitors, and DMSO and dd-H2O content was adjusted in the basolateral compartment as well in order to apply the same vehicle concentrations on the apical and basolateral compartment. […] Subsequently, duplicates of apical sample were collected, and samples were frozen at −80 °C until further analysis with High-Performance Liquid Chromatography (HPLC).
(§2) Mean values of relative fluorescence unit (RFU) or detected area [mAU × min] were used for calculation. For the first timepoint, the clearance [µL] for the detected area was calculated as shown in the formula below (1a), with Abasot1 as the measured area [mAU × min] at the first time point of the basolateral sample, Vbaso as the basolateral volume [µL] and Astock as the area measured for the applied stock solution. […] Clearance [µL] for carboxyfluorescein was calculated with the same formulas using RFU. (1a) Clearance=Abasot1×Vbaso/AStock (1b) Clearancetn=Abasotn×Vbaso/AStock−∑(Abasotn−1 ×3− Abasot1 ×3)
(§3) Cleared volume [µL] was calculated by plotting the sum of clearance at all time points over time [min]. The resulting slope PS [µL/min] was calculated inversely. For calculation of the PScell, the inverse PS blanks were subtracted, as shown below in Formula (2). (2) 1/PScell=1/PSall−1/PSblank

[2] = test system: JAK1, TRAF2 and RELA mRNA in TR146 cells; assay: qPCR of JAK1, TRAF2 and RELA after inflammation study; type: cell-based, human; details: 48 h
Description: ® were seeded with cells as described above. […] Prior to treating cells with prepared DMEM solutions, TEER was measured in cultivation media DMEM supplemented with 1% Penicillin/Streptomycin and 10% Fetal Calf Serum. Subsequently, cell layers and blanks were washed with DMEM (without supplements) twice on the apical and basolateral compartment, followed by TEER measurements in DMEM. Media of cells were replaced with previously prepared DMEM solutions. Control media was applied on the blanks. After 48 h treatment at 37 °C, 5% CO2 and 95% humidity TEER was measured. […] Media were immediately collected and measured for the RFU content using the EnSpire as described above. Afterwards, media were stored at -20 °C until further usage. […] For qPCR, samples were analysed as triplicates using the LightCycler480 II (Roche) with the program described in Lin et al. with primers for 18SrRNA (5'-3' forward: [NT], 5'-3' reverse: [NT], Janus Kinase 1 transcript variant a (JAK1tva) (5'-3' forward: [NT], 5'-3' reverse: [NT], JAK1tvb (5'-3' forward: [NT], 5'-3' reverse: [NT], JAK1tvc (5'-3' forward: [NT], 5'-3' reverse: [NT] Receptor Associated Factor 2 (TRAF2) tvb (5'-3' forward: [NT], 5'-3' reverse: […]2tvc (5'-3' forward: [NT], 5'-3' reverse: [NT] and nuclear factor κB (NF-κB) RelA (forward 5'-3': [NT], reverse 5'-3': […]

[3] = after oral administration of 200 mg ref 52, 53; cited from earlier work
[4] = CXlogD at pH 7.4 ref https://ebi.ac.uk (02.04.2024); cited from earlier work
in vitro = details: human
Description: (§4) As soon as cells reached confluency, cultivation was switched from submerged to airlift and 1% Human Keratinocytes Growth Supplements (HKGS, Gibco, Thermofisher, Vienna, Austria, S0015) was added to the cultivation media on the basolateral compartment. Media were changed every 2–3 days until the day of experiment on day 29. Cells from passage 14–36 were used for experiments. Transepithelial electric resistance (TEER) was measured on day of experiment, as described in detail previously.
(§5) Solutions were diluted to 10 µM (carboxyfluorescein) or 100 µM in DMEM on day of experiments.
as §1
(§6) Peaks were quantified using the software Chromeleon Version 7.2.6, and corresponding mili absorbance unit × time [mAU × min] values were used for data analysis.
as §2, §3
(§7) The final permeability coefficient is calculated by dividing the inverse PScell by the area of the ThinCerts (0.336 cm^2) and multiplying by a conversion factor to give the permeability coefficient as µm/min.

[5] = test system: oral mucosa epithelium in vitro model based on human cell line TR146; assay: Transport study across oral mucosa Transwell model, apical to basolateral, 240 min; details: for permeability coefficient: mean ± SEM
Description: as §4, §5, §1, §6, §2, §3, §7

[6] = test system: COX-1 and COX-2 protein in TR146 cells; assay: Western blot for COX-1 and COX-2 after inflammation study; type: cell-based, human; details: 48 h treatment
[7] = Ibuprofen study, Probenecid, mean ± SD
[8] = Ibuprofen study, Verapamil, mean ± SD
[9] = Ibuprofen study, w/o Inhibitor, mean ± SD

CC(C)Cc1ccc(C(C)C(=O)O)cc1 (centres unmarked) [ibuprofen]
COX-2 expression (PC3 cells): upregulation of COX-2
PS blank ([1]; Probenecid): 0.22 ± 0.02 µL/min
PS blank ([1]; Verapamil): 0.21 ± 0.02 µL/min
PS blank ([1]; w/o Inhibitor): 0.21 ± 0.03 µL/min
RELA mRNA expression ([2]; 100 µM ibuprofen with inflammatory cytokines, p < 0.05): inhibit the increase in RELA
JAK1 and TRAF2 mRNA expression ([2]; cytokines 100 ng/mL each, ibuprofen 100 µM added during inflammation): did not block the upregulation
plasma concentration [3]: 116 to 142.5 µM
XlogD [4]: 1.34
Papp A→B at 240 min (in vitro; PC (permeability of cell)): 13.1 ×10⁻⁶ cm/s
Papp A→B at 240 min (in vitro; PE (permeability of cell + blank)): 5.45 ×10⁻⁶ cm/s
PS all (cell + blank) [5, 7]: 0.12 ± 0.03 µL/min
PS cell [5, 7]: 0.26 ± 0.11 µL/min
PS all (cell + blank) [5, 8]: 0.11 ± 0.01 µL/min
PS cell [5, 8]: 0.24 ± 0.04 µL/min
PE (permeability of cell + blank) [5, 9]: 2.94 ± 0.3 µm/min
PS all (cell + blank) [5, 9]: 0.1 ± 0.01 µL/min
PS cell [5, 9]: 0.19 ± 0.05 µL/min
Permeability coefficient without inflammation and inhibitor ([5]; Table S3, mean ± SD): 5.77 ± 1.48 µm/min
PE (permeability of cell + blank) ([5]; human, 240 min): 3.47 ± 0.76 µm/min
increase of permeability coefficient with probenecid compared to no inhibitor ([5]; human, 240 min, 100 µM): 1.36 fold
increase of permeability coefficient with verapamil compared to no inhibitor ([5]; human, 240 min, 100 µM): 1.23 fold
cumulated concentration of NSAID in the basolateral compartment ([5]; human, 4 h, 100 µM): 0.067 ± 0.0078 nmol/mm^2
permeability coefficient ([5]; with 100 µM probenecid): 7.87 ± 1.32 µm/min
permeability coefficient ([5]; with 100 µM verapamil): 7.13 ± 0.51 µm/min
permeability coefficient ([5]; without inhibitor, 100 µM apical (CF 10 µM)): 5.77 ± 0.60 µm/min
COX-2 protein expression [6]: no up-regulation of COX-2
